Assay results published in patent US4551445A, “Derivatives of arginine vasopressin antagonists” (The Medical College of Ohio, priority 1983, dated 1985).
Starred links: 1 amine or outer side, 2 acyl side, 3 side chain; linkers in the order of their positions; H or OH if unused. Positions of bridges follow the written chain, without caps; N, C: chain ends. Non-standard residues stand in square brackets, D forms with d. Residues, ends and D or L forms follow the SMILES beside them. X1 = O=C(CC1(S[*:2])CCCCC1)[*:1]

Legend:
[1] = tested on: antidiuretic response to arginine vasopressin (ADH); test: Anti-antidiuretic: antagonism of the antidiuretic response to subsequent injections of vasopressin; assay type: in vivo, rats; details: for Anti-Antidiuretic pA2: estimated in vivo pA2, volume of distribution 67 ml/kg
Protocol: Activity as antidiuretic agonists was determined by intravenous injection of the compounds being evaluated in ethanol-anesthesized water-loaded rats in accordance with Sawyer, Endocrinology, vol. 63 (1958) at 694. Antagonism of the response to subsequent injections of vasopressin was tested as described by Sawyer et al., Science, vol. 212 (1981) at 49.
(§1) Antagonistic potencies were determined and expressed as "effective doses" and pA2 values. The "effective dose" is defined as the dose (in nanomoles per kilogram) that reduces the response seen from 2x units of agonist injected 20 min after the dose of antagonist to the response with 1x units of agonist. Estimated in vivo "pA2 " values represent the negative logarithms of the effective doses, divided by the estimated volume of distribution (67 ml/kg).

[2] = tested on: vasopressor response to arginine vasopressin; test: Antivasopressor: antagonism to the vasopressor response (Dyckes et al.); assay type: in vivo; details: for Antivasopressor pA2: Table 1, estimated in vivo pA2
Protocol: Antagonism to the vasopressor response was estimated in accordance with Dyckes et al., J. Med. Chem., vol. 17 (1974) at 969. The values are expressed as pA2 values, defined as in Schild et al., Br. J. Pharmacol., vol. 2 (1947) at 189.
as §1

Molecule | Anti-Antidiuretic ED ([1]; Table 2, effective dose) | Anti-Antidiuretic pA2 ([1]; Table 2) | Antivasopressor Potency ED ([2]; Table 2, effective dose) | AD/VP ([2]; Table 2, ratio, values fit antivasopressor ED / anti-antidiuretic ED) | Anti-Antidiuretic pA2 ([1]; Table 1) | Antivasopressor pA2 [2]
[1-(β-mercapto-β,β-cyclopentamethylenepropionic acid), 2-D-phenylalanine, 4-leucine, 7-hydroxyproline]-arginine vasopressin [d(CH2)5 D-Phe^2 Ile^4 Hy-Pro^7 AVP] | 1.3 ± 0.3 nmol/kg | 7.74 | 0.9 ± 0.2 nmol/kg | 0.7 | – | –
CCOc1ccc(C[C@H]2NC(=O)CC3(CCCCC3)SSC[C@@H](C(=O)N3CCC[C@H]3C(=O)N[C@@H](CCCNC(=N)N)C(=O)NCC(N)=O)NC(=O)[C@H](CC(N)=O)NC(=O)[C@H](C(C)C)NC(=O)[C@H](Cc3ccccc3)NC2=O)cc1 [d(CH2)5 --D-Tyr(Et)VAVP] ([dY](Et)FVNCPRG-NH2; linker N-5 via X1) | – | – | – | – | 7.81 ± 0.07 | 8.22 ± 0.12
CCOc1ccc(C[C@H]2NC(=O)CC3(CCCCC3)SSC[C@@H](C(=O)N3CCC[C@@H]3C(=O)N[C@@H](CCCNC(=N)N)C(=O)NCC(N)=O)NC(=O)[C@H](CC(N)=O)NC(=O)[C@H](C(C)C)NC(=O)[C@H](Cc3ccccc3)NC2=O)cc1 [d(CH2)5 D-Tyr(Et)^2 D-Pro^7 VAVP] ([dY](Et)FVNC[dP]RG-NH2; linker N-5 via X1) | – | – | – | – | 7.64 ± 0.08 | 8.10 ± 0.06
